Data taken from PubChem BioAssay AID1845199 (Molecular Pharmacology Branch, DTP, NCI, 2023).

Tested on: 556581-035-R-J1 tumor spheroid viability, % test/control
Test: Anticancer human tumor 556581-035-R-J1 patient-derived ovarian carcinoma cell line growth inhibition
Conditions: spheroids with HUVEC and MSC; for IC50: curve of first compound; for viability, T/C: stronger effect = lower value
Summary of the method: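 Complex spheroids of malignant cells with endothelial cells and mesenchymal stem cells; agents alone or combined, from near clinical Cmax (or 10 microM if unknown) down in half-log steps, 0.25% DMSO final.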

[1] = second compound 30 pM, first compound 0.00949 µM
[2] = second compound 30 pM, first compound 0.03 µM
[3] = second compound 30 pM, first compound 0.0949 µM
[4] = second compound 30 pM, first compound 0.3 µM
[5] = second compound 30 pM, first compound 0.949 µM
[6] = second compound 30 pM, first compound 3 µM
[7] = second compound 94.9 pM, first compound 0.00949 µM
[8] = second compound 94.9 pM, first compound 0.03 µM
[9] = second compound 94.9 pM, first compound 0.0949 µM
[10] = second compound 94.9 pM, first compound 0.3 µM
[11] = second compound 94.9 pM, first compound 0.949 µM
[12] = second compound 94.9 pM, first compound 3 µM
[13] = second compound 0.0003 µM, first compound 0.00949 µM
[14] = second compound 0.0003 µM, first compound 0.03 µM
[15] = second compound 0.0003 µM, first compound 0.0949 µM
[16] = second compound 0.0003 µM, first compound 0.3 µM
[17] = second compound 0.0003 µM, first compound 0.949 µM
[18] = second compound 0.0003 µM, first compound 3 µM
[19] = second compound 0.000949 µM, first compound 0.00949 µM
[20] = second compound 0.000949 µM, first compound 0.03 µM
[21] = second compound 0.000949 µM, first compound 0.0949 µM
[22] = second compound 0.000949 µM, first compound 0.3 µM
[23] = second compound 0.000949 µM, first compound 0.949 µM
[24] = second compound 0.000949 µM, first compound 3 µM
[25] = second compound 0.003 µM, first compound 0.00949 µM
[26] = second compound 0.003 µM, first compound 0.03 µM
[27] = second compound 0.003 µM, first compound 0.0949 µM
[28] = second compound 0.003 µM, first compound 0.3 µM
[29] = second compound 0.003 µM, first compound 0.949 µM
[30] = second compound 0.003 µM, first compound 3 µM
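Note: spheroids exposed to compounds for 7 days before viability read.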

Structure (SMILES) | IC50 (second compound 30 pM) | IC50 (second compound 94.9 pM) | IC50 (second compound 0.0003 µM) | IC50 (second compound 0.000949 µM) | IC50 (second compound 0.003 µM) | viability, T/C [3] | viability, T/C [4] | viability, T/C [5] | viability, T/C [6] | viability, T/C [9] | viability, T/C [10] | viability, T/C [11] | viability, T/C [12] | viability, T/C [15] | viability, T/C [16] | viability, T/C [17] | viability, T/C [18] | viability, T/C [21] | viability, T/C [22] | viability, T/C [23] | other results
CNCc1ccc(-c2cc(-c3nc(-c4ccc(S(=O)(=O)C(C)C)cc4)cnc3N)on2)cc1 + COc1cc2c(cc1O)CCNC21CSC2c3c(OC(C)=O)c(C)c4c(c3C(COC1=O)N1C(O)C3Cc5cc(C)c(OC)c(O)c5C(C21)N3C)OCO4 | 1610 nM | 1240 nM | 725 nM | < 9.49 nM | < 9.49 nM | 108% | 108% | 69.4% | 27.1% | 105% | 96.1% | 61% | 13.6% | 107% | 94.3% | 36.5% | 11% | 25.6% | 9.62% | 2.92% | viability, T/C [1]: 99.4%; viability, T/C [2]: 108%; viability, T/C [7]: 105%; viability, T/C [8]: 102%; viability, T/C [13]: 94.4%; viability, T/C [14]: 97.1%; viability, T/C [19]: 28.1%; viability, T/C [20]: 38.3%; viability, T/C [24]: 0.33%; viability, T/C [25]: 0.74%; viability, T/C [26]: 0.64%; viability, T/C [27]: 0.49%; viability, T/C [28]: 0.47%; viability, T/C [29]: 0.42%; viability, T/C [30]: 0.33%
Cc1sc2c(c1C)C(c1ccc(Cl)cc1)=NC(CC(=O)Nc1ccc(O)cc1)c1nnc(C)n1-2 (stereo not given) + COc1cc2c(cc1O)CCNC21CSC2c3c(OC(C)=O)c(C)c4c(c3C(COC1=O)N1C(O)C3Cc5cc(C)c(OC)c(O)c5C(C21)N3C)OCO4 | > 3000 nM | > 3000 nM | 782 nM | < 9.49 nM | < 9.49 nM | 83.8% | 80.1% | 72.1% | 63.5% | 87.4% | 75.8% | 71% | 54.9% | 80.3% | 64.4% | 47.4% | 35.4% | 15.9% | 5.84% | 1.81% | viability, T/C [1]: 107%; viability, T/C [2]: 101%; viability, T/C [7]: 112%; viability, T/C [8]: 102%; viability, T/C [13]: 90.1%; viability, T/C [14]: 88.2%; viability, T/C [19]: 21.7%; viability, T/C [20]: 18.8%; viability, T/C [24]: 0.31%; viability, T/C [25]: 0.52%; viability, T/C [26]: 0.55%; viability, T/C [27]: 0.44%; viability, T/C [28]: 0.36%; viability, T/C [29]: 0.97%; viability, T/C [30]: 1.24%
Cn1ncnc1[C@H]1c2n[nH]c(=O)c3cc(F)cc(c23)N[C@@H]1c1ccc(F)cc1 + COc1cc2c(cc1O)CCNC21CSC2c3c(OC(C)=O)c(C)c4c(c3C(COC1=O)N1C(O)C3Cc5cc(C)c(OC)c(O)c5C(C21)N3C)OCO4 | > 3000 nM | > 3000 nM | 2230 nM | < 9.49 nM | < 9.49 nM | 93.5% | 86.7% | 74.5% | 58.7% | 89.5% | 84.9% | 69.7% | 51.7% | 84.1% | 79.1% | 68.7% | 43.4% | 31.8% | 28.1% | 7.63% | viability, T/C [1]: 100%; viability, T/C [2]: 96.7%; viability, T/C [7]: 99.7%; viability, T/C [8]: 97.7%; viability, T/C [13]: 85.6%; viability, T/C [14]: 91.8%; viability, T/C [19]: 39.6%; viability, T/C [20]: 33.9%; viability, T/C [24]: 1.54%; viability, T/C [25]: 0.96%; viability, T/C [26]: 0.99%; viability, T/C [27]: 0.97%; viability, T/C [28]: 1.34%; viability, T/C [29]: 1.27%; viability, T/C [30]: 1.68%
O=C(c1cc(Cc2n[nH]c(=O)c3ccccc23)ccc1F)N1CCN(C(=O)C2CC2)CC1 + COc1cc2c(cc1O)CCNC21CSC2c3c(OC(C)=O)c(C)c4c(c3C(COC1=O)N1C(O)C3Cc5cc(C)c(OC)c(O)c5C(C21)N3C)OCO4 | > 30000 nM | > 30000 nM | > 30000 nM | < 94.9 nM | < 94.9 nM | 104% | 105% | 103% | 93.7% | 98.1% | 103% | 96.2% | 90% | 89.5% | 88.7% | 88.6% | 87.2% | 35% | 27.9% | 27.9% | viability, T/C (second compound 30 pM, first compound 9.49 µM): 79.7%; viability, T/C (second compound 30 pM, first compound 30 µM): 63.5%; viability, T/C (second compound 94.9 pM, first compound 9.49 µM): 75.6%; viability, T/C (second compound 94.9 pM, first compound 30 µM): 63%; viability, T/C (second compound 0.0003 µM, first compound 9.49 µM): 66.8%; viability, T/C (second compound 0.0003 µM, first compound 30 µM): 50.1%; viability, T/C [24]: 23.4%; viability, T/C (second compound 0.000949 µM, first compound 9.49 µM): 7.48%; viability, T/C (second compound 0.000949 µM, first compound 30 µM): 1.51%; viability, T/C [27]: 0.86%; viability, T/C [28]: 0.88%; viability, T/C [29]: 0.88%; viability, T/C [30]: 1.14%; viability, T/C (second compound 0.003 µM, first compound 9.49 µM): 1.42%; viability, T/C (second compound 0.003 µM, first compound 30 µM): 2.1%
